Experimental data: ChEMBL document CHEMBL5154936, “Scaffold Hopping Strategy to Identify Prostanoid EP4 Receptor Antagonists for Cancer Immunotherapy” (J Med Chem, 2022)
Values after ≈ are worked out from the molar mass of the structure shown.

Tests used:
[1] = Volume of distribution at steady state in BALB/c mouse at 5 mg/kg, po measured upto 24 hrs by LC-MS/MS analysis; type: ADME, organism-based; details: in vivo
[2] = Volume of distribution at steady state in BALB/c mouse at 1 mg/kg, iv measured upto 24 hrs by LC-MS/MS analysis; type: ADME, organism-based; details: in vivo, read-out: Vdss
CYP2C9 = CYP2C9 (Homo sapiens, UniProt P11712); assay: Inhibition of CYP2C9 (unknown origin) at 20 uM; type: ADME
[3] = target: T1, Prostaglandin E2 receptor EP1 subtype (Homo sapiens, UniProt P34995); assay: Antagonist activity at human EP1 receptor transfected in CHO/Galpha16 cells preincubated for 15 mins followed by PGE2 addition by calcium flux assay; type: functional, cell-based
T1 sequence (P34995 whole entry): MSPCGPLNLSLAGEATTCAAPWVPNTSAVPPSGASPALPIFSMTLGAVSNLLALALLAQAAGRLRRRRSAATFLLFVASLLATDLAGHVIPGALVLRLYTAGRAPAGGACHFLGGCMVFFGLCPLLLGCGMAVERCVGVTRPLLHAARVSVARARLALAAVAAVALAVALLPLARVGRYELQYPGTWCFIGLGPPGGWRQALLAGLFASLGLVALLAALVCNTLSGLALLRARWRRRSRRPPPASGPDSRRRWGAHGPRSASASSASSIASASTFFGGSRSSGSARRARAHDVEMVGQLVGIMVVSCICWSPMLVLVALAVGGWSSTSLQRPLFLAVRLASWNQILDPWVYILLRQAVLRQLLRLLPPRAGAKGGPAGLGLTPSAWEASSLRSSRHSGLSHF

[4] = target: Prostaglandin E2 receptor EP2 subtype (Homo sapiens, UniProt P43116); assay: Antagonist activity at human EP2 receptor transfected in CHO/Galpha16 cells preincubated for 15 mins followed by PGE2 addition by calcium flux assay; type: functional, cell-based
[5] = target: T2, Prostaglandin E2 receptor EP3 subtype (Homo sapiens, UniProt P43115); assay: Antagonist activity at human EP3 receptor transfected in CHO/Galpha16 cells preincubated for 15 mins followed by PGE2 addition by calcium flux assay; type: functional, cell-based
T2 sequence (P43115 whole entry): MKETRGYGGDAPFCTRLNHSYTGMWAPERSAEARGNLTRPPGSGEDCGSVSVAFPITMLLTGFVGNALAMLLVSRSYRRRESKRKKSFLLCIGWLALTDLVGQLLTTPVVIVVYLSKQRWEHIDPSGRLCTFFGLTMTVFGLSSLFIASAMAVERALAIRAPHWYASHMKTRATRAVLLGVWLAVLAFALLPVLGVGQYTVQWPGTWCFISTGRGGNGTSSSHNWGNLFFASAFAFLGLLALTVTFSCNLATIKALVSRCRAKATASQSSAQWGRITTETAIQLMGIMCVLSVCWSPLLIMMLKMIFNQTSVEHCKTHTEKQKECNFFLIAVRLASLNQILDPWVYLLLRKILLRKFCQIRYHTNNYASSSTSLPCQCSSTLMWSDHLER

[6] = Metabolic stability in human liver microsomes assessed as half life; type: ADME, Microsome
[7] = Metabolic stability in human liver microsomes assessed as intrinsic clearance; type: ADME, Microsome; details: read-out: CLH
[8] = Metabolic stability in human liver microsomes assessed as parent compound remaining at 10 uM measured after 60 mins; type: ADME, Microsome; details: read-out: Stability
[9] = Metabolic stability in mouse liver microsomes assessed as half life; type: ADME, Microsome
[10] = Metabolic stability in mouse liver microsomes assessed as intrinsic clearance; type: ADME, Microsome; details: read-out: CLH
[11] = Metabolic stability in mouse liver microsomes assessed as parent compound remaining at 10 uM measured after 60 mins; type: ADME, Microsome; details: read-out: Stability
CYP1A2 = target: T3, CYP1A2 (Homo sapiens, UniProt P05177); assay: Inhibition of CYP1A2 (unknown origin) at 20 uM; type: ADME
T3 sequence (P05177 whole entry): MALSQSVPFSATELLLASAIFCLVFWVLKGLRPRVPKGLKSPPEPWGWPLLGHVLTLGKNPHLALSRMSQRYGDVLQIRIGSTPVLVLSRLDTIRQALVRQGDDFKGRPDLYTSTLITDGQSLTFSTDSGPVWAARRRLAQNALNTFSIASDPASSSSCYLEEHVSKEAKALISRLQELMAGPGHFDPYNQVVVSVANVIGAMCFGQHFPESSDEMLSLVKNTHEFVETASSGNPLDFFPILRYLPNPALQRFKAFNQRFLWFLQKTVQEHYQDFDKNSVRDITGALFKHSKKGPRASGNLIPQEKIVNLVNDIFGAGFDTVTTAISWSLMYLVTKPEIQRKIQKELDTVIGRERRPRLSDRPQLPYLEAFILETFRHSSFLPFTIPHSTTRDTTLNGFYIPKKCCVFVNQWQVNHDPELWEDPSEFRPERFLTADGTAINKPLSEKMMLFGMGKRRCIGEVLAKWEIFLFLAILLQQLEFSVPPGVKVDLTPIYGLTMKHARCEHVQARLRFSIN

CYP2D6 = CYP2D6 (Homo sapiens, UniProt P10635); assay: Inhibition of CYP2D6 (unknown origin) at 20 uM; type: ADME
CYP2E1 = CYP2E1 (Homo sapiens, UniProt P05181); assay: Inhibition of CYP2E1 (unknown origin) at 20 uM; type: ADME
[12] = Cmax in BALB/c mouse at 1 mg/kg, iv measured upto 24 hrs by LC-MS/MS analysis; type: ADME, organism-based; design: time < 24 hrs, dose 1 mg/kg, route iv; details: in vivo
[13] = AUC (0 to 24 hrs) in BALB/c mouse at 1 mg/kg, iv measured upto 24 hrs by LC-MS/MS analysis; type: ADME, organism-based; design: dose 1 mg/kg, time < 24 hrs, route iv; details: in vivo
[14] = AUC (0 to infinity) in BALB/c mouse at 1 mg/kg, iv measured upto 24 hrs by LC-MS/MS analysis; type: ADME, organism-based; design: time < 24 hrs, dose 1 mg/kg, route iv; details: in vivo
[15] = Clearance in BALB/c mouse at 1 mg/kg, iv measured upto 24 hrs by LC-MS/MS analysis; type: ADME, organism-based; details: in vivo
[16] = Half life in BALB/c mouse at 1 mg/kg, iv measured upto 24 hrs by LC-MS/MS analysis; type: ADME, organism-based; details: in vivo
[17] = Cmax in BALB/c mouse at 5 mg/kg, po measured upto 24 hrs by LC-MS/MS analysis; type: ADME, organism-based; design: dose 5 mg/kg, time < 24 hrs, route po; details: in vivo
[18] = AUC (0 to 24 hrs) in BALB/c mouse at 5 mg/kg, po measured upto 24 hrs by LC-MS/MS analysis; type: ADME, organism-based; design: dose 5 mg/kg, time < 24 hrs, route po; details: in vivo
[19] = Clearance in BALB/c mouse at 5 mg/kg, po measured upto 24 hrs by LC-MS/MS analysis; type: ADME, organism-based; details: in vivo
[20] = Oral bioavailability in BALB/c mouse at 5 mg/kg measured upto 24 hrs by LC-MS/MS analysis; type: ADME, organism-based; details: in vivo
[21] = Kinetic solubility of compound in simulated intestinal fluid at pH 6.8 measured after 24 hrs by HPLC analysis; type: physicochemical; details: read-out: Kinetic_solubility
[22] = Kinetic solubility of compound in simulated gastric fluid at pH 1.2 measured after 24 hrs by HPLC analysis; type: physicochemical; details: read-out: Kinetic_solubility
[23] = target: Voltage-gated inwardly rectifying potassium channel KCNH2 (Homo sapiens, UniProt Q12809); assay: Inhibition of human ERG potassium channel transfected in HEK293 cells by whole-cell patch clamp assay; type: toxicity, cell-based
[24] = Plasma protien binding of the compound incubated for 24 hrs by equilibrium dialysis method; type: ADME, cell-free; details: read-out: PPB (converted)

Prostaglandin E2 receptor EP2 subtype, sequence (P43116 whole entry): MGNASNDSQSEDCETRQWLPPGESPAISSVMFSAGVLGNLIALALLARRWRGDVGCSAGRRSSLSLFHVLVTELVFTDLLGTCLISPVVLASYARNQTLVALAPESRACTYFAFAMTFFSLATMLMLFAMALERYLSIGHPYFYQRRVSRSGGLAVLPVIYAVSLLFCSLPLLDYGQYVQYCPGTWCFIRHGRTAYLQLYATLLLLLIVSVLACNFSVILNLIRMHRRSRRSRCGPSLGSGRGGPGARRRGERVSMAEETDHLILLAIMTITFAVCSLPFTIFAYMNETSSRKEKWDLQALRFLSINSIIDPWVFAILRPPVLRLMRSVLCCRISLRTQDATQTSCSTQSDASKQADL
CYP2D6, sequence (P10635 whole entry): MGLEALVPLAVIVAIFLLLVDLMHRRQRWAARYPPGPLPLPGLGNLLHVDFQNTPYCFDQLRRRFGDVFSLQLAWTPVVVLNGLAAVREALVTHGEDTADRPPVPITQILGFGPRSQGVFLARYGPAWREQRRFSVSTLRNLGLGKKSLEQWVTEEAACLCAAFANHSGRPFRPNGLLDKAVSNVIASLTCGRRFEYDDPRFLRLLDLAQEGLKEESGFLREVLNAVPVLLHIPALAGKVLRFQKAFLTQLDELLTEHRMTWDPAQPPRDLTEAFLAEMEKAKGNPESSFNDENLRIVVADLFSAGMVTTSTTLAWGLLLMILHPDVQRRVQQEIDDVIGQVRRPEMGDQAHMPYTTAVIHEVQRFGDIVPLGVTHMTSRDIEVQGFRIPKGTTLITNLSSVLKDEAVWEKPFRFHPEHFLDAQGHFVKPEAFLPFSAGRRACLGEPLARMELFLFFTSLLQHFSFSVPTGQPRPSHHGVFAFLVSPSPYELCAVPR
Voltage-gated inwardly rectifying potassium channel KCNH2, sequence (Q12809 whole entry): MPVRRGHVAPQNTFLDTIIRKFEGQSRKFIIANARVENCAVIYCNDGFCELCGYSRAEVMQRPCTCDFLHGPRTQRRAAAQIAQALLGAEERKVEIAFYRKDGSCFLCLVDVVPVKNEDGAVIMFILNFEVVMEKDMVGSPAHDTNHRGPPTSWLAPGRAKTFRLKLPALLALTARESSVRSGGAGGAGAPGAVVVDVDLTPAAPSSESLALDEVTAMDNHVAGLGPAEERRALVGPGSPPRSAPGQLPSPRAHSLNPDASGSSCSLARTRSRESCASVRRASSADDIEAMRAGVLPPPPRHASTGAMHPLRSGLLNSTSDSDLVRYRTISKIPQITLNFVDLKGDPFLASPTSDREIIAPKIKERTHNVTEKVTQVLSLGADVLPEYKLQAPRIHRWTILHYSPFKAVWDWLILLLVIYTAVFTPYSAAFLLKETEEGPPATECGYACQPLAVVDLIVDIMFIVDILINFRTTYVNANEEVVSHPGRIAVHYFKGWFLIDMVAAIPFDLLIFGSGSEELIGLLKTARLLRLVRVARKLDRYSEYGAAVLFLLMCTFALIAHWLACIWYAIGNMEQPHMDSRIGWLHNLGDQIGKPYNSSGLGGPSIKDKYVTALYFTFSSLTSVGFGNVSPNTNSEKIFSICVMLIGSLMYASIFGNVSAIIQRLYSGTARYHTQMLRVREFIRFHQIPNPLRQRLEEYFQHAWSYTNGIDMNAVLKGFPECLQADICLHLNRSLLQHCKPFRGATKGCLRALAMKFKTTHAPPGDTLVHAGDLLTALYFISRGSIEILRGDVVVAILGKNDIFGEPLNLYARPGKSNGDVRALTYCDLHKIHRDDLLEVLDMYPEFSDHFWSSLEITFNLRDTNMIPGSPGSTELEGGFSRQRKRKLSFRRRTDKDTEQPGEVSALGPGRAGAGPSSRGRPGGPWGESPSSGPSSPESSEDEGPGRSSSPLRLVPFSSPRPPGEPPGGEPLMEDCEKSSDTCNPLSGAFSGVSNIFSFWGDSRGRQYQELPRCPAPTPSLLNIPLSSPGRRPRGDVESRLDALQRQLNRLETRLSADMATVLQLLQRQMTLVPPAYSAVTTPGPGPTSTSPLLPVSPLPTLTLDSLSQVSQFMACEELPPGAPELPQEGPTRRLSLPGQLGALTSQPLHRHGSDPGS
CYP2E1, sequence (P05181 whole entry): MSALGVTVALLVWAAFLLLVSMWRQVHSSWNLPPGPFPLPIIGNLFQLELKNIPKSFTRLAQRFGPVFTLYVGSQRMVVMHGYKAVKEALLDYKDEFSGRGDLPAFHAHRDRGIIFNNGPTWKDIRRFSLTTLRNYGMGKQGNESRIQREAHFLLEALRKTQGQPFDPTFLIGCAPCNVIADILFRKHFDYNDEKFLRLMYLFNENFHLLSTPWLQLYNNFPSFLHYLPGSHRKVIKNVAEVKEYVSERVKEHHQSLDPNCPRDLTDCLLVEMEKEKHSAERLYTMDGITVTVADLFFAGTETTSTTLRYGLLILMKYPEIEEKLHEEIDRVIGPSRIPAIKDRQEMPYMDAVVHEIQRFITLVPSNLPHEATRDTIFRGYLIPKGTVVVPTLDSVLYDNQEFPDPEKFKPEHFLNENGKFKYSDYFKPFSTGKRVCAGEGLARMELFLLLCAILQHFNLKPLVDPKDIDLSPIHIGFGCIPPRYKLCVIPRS
CYP2C9, sequence (P11712 whole entry): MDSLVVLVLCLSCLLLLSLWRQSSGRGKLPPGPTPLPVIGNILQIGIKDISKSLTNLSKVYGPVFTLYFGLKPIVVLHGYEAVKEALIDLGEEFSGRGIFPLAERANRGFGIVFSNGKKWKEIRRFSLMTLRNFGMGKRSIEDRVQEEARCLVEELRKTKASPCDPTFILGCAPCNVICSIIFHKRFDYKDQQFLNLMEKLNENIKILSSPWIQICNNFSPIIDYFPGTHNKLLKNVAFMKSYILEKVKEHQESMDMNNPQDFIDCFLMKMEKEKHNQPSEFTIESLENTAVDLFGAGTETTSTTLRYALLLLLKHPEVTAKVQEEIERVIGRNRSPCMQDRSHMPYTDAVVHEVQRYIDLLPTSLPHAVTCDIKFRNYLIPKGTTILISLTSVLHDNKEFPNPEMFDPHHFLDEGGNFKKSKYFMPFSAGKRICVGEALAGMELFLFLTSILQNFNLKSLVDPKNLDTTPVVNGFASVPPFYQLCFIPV

SMILES	Vdss [1] [L/kg]	Vd [2] [L/kg]	inhibition at 20 µM (CYP2C9) [%]	IC50 [3] [µM]	IC50 [4] [µM]	IC50 [5] [µM]	half-life [6] [h]	microsomal CLint [7] [µL/min/mg]	remaining at 1 h, 10 µM [8] [%]	half-life [9] [h]	microsomal CLint [10] [µL/min/mg]	remaining at 1 h, 10 µM [11] [%]	inhibition at 20 µM (CYP1A2) [%]	inhibition at 20 µM (CYP2D6) [%]	inhibition at 20 µM (CYP2E1) [%]	Cmax [12] [ng/mL]	AUC(0-t) at 24 h [13] [ng·h/mL]	AUC(0-inf) [14] [ng·h/mL]	clearance [15] [mL/min/kg]	half-life [16] [h]	other results
O=C(O)c1ccc(CNC(=O)c2c(Cc3ccc(F)cc3)sc3c2CCOC3)cc1	21.0327	6.14	44	> 10	> 10	> 10	> 2.42	< 9.6	89.8	> 2.42	< 9.6	92.1	46	65	31	2840	684	735	22.7	3.2	Cmax [17]: 982 ng/mL; AUC(0-t) at 24 h [18]: 2100 ng·h/mL; CL/F [19]: 38.5 mL/min/kg; bioavailability [20]: 61.4%; solubility kinetic at 24 h [21]: > 200 µM; solubility kinetic at 24 h [22]: 2.97 µM (≈ 1.26 µg/mL); IC50 [23]: > 30 µM; fraction unbound at 24 h [24]: 0.062
C[C@H](NC(=O)c1c(Cc2cccc(C(F)(F)F)c2)sc2c1CCOC2)c1ccc(C(=O)O)cc1	14.5274	7.39	27	> 10	> 10	> 10	> 2.42	< 9.6	84.6	> 2.42	< 9.6	90.2	60	72	23	2800	642	683	24.6	3.4	Cmax [17]: 664 ng/mL; AUC(0-t) at 24 h [18]: 1680 ng·h/mL; CL/F [19]: 49.9 mL/min/kg; bioavailability [20]: 52.3%; solubility kinetic at 24 h [21]: 182 µM (≈ 89.1 µg/mL); solubility kinetic at 24 h [22]: < 1 µM; IC50 [23]: > 30 µM; fraction unbound at 24 h [24]: 0.034
